What follows are molecules tested against T1, PIP4K2C (Homo sapiens, UniProt Q8TBX8) (assay: HiBiT PIP4K2C degradation assay in MOLT-4 cells (endogenous PIP4K2C C-terminally tagged with HiBiT)). Conditions: 6 hours of incubation time, rather than 24 hours; MOLT-4, top concentration 10 micromolar; read-out: HiBIT-degradation MOLT4 PIP4k2C DC50 (6 hours, marked *).
T1 sequence (Q8TBX8 1-421): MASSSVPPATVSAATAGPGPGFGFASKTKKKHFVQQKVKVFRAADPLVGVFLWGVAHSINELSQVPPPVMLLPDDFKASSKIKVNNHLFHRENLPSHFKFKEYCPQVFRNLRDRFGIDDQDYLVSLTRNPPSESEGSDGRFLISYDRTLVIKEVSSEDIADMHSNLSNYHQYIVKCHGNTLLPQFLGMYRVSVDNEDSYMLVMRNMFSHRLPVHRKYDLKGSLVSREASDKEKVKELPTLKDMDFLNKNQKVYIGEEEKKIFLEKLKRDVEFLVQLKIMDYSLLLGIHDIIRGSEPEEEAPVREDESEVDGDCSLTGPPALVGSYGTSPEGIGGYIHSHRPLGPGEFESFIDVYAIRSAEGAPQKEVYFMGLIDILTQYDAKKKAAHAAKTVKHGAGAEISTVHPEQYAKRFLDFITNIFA
Type: cell-based
Set-up: untagged in primary human PBMCs and monocyte-derived dendritic cells
How it was run: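 Endogenous PIP4K2C was C-terminally HiBiT-tagged by CRISPR-Cas9 in MOLT-4 cells, which were treated with a 10-point, 3-fold dilution series from 10 micromolar in duplicate for 24 or 6 hours at 37 C. Remaining protein was read by HiBiT lytic luminescence, and DC50 came from a Hill fit.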

DC50, < 500 nM:
O=C1CCC(Nc2ccc(N3CCC(N4CCC(C(=O)N[C@H]5CC[C@H](Nc6ncc(F)c(-c7cccc(N8CCOCC8=O)c7)n6)CC5)CC4)C(F)C3)c(F)c2)C(=O)N1 (some centres unmarked) [Compound 526, 1′-(4-((2,6-dioxopiperidin-3-yl)amino)-2-fluorophenyl)-3′-fluoro-N-((1r,4r)-4-((5-fluoro-4-(3-(3-oxomorpholino)phenyl)pyrimidin-2-yl)amino)cyclohexyl)-[1,4′-bipiperidine]-4-carboxamide]
O=C1CCC(Nc2ccc(C3CCN([C@H]4CC[C@H](NC(=O)[C@H]5CC[C@H](Nc6ncc(F)c(-c7cccc(C(=O)N8CC[C@H](O)C8)c7)n6)CC5)CC4)CC3)c(F)c2)C(=O)N1 (stereo partly drawn) [Compound 510, trans-N-(trans-4-(4-(4-((2,6-dioxopiperidin-3-yl)amino)-2-fluorophenyl)piperidin-1-yl)cyclohexyl)-4-((5-fluoro-4-(3-((S)-3-hydroxypyrrolidine-1-carbonyl)phenyl)pyrimidin-2-yl)amino)cyclohexane-1-carboxamide]
Cn1nc(C2CCC(=O)NC2=O)c2ccc(C3CCN(C[C@H]4CC[C@H](C(=O)N[C@H]5CC[C@H](Nc6ncc(F)c(-c7cccc(-n8ccccc8=O)c7)n6)CC5)CC4)CC3)cc21 (stereo partly drawn) [Compound 535, trans-(1r,4R)-4-((4-(3-(2,6-dioxopiperidin-3-yl)-1-methyl-1H-indazol-6-yl)piperidin-1-yl)methyl)-N-((1r,4R)-4-((5-fluoro-4-(3-(2-oxopyridin-1 (2H)-yl)phenyl)pyrimidin-2-yl)amino)cyclohexyl)cyclohexane-1-carboxamide]
Cn1nc(C2CCC(=O)NC2=O)c2ccc(N3CCN(CC4CCN(C(=O)[C@H]5CC[C@H](Nc6ncc(F)c(-c7cccc(-n8ccccc8=O)c7)n6)CC5)CC4)CC3)cc21 (stereo partly drawn) [Compound 399, 3-(6-(4-((1-(trans-4-((5-fluoro-4-(3-(2-oxopyridin-1(2H)-yl)phenyl)pyrimidin-2-yl)amino)cyclohexane-1-carbonyl)piperidin-4-yl)methyl)piperazin-1-yl)-1-methyl-1H-indazol-3-yl)piperidine-2,6-dione]
Cn1nc(N2CCC(=O)NC2=O)c2cc(F)c(C3CCN([C@H]4CC[C@H](C(=O)N[C@H]5CC[C@H](Nc6ncc(F)c(-c7cccc(-n8ccccc8=O)c7)n6)CC5)CC4)CC3)cc21 [Compound 512, trans-4-(4-(3-(2,4-dioxotetrahydropyrimidin-1(2H)-yl)-5-fluoro-1-methyl-1H-indazol-6-yl)piperidin-1-yl)-N-(trans-4-((5-fluoro-4-(3-(2-oxopyridin-1(2H)-yl)phenyl)pyrimidin-2-yl)amino)cyclohexyl)cyclohexane-1-carboxamide]
O=C1CCC(Nc2ccc(N3CCC(N4CCC(C(=O)N[C@H]5CC[C@H](Nc6ncc(F)c(-c7cccc(N8CCCCC8=O)c7)n6)CC5)CC4)C(F)(F)C3)c(F)c2)C(=O)N1 (stereo partly drawn) [Compound 499, trans-1′-(4-((2,6-dioxopiperidin-3-yl)amino)-2-fluorophenyl)-3′,3′-difluoro-N-(4-((5-fluoro-4-(3-(2-oxopiperidin-1-yl)phenyl)pyrimidin-2-yl)amino)cyclohexyl)-[1,4′-bipiperidine]-4-carboxamide]
O=C1CCC(Nc2ccc(N3CCC(N4CCC(C(=O)N[C@H]5CC[C@H](Nc6ncc(F)c(-c7cccc(C8CC8)c7)n6)CC5)CC4)C(F)(F)C3)c(F)c2)C(=O)N1 (stereo partly drawn) [Compound 497, trans-N-(4-((4-(3-cyclopropylphenyl)-5-fluoropyrimidin-2-yl)amino)cyclohexyl)-1′-(4-((2,6-dioxopiperidin-3-yl)amino)-2-fluorophenyl)-3′,3′-difluoro-[1,4′-bipiperidine]-4-carboxamide]
O=C1CCC(Nc2ccc(C3CCN(C4CCC(C(=O)N[C@H]5CC[C@H](Nc6ncc(F)c(-c7cccc(-n8ccccc8=O)c7)n6)CC5)CC4F)CC3)c(F)c2)C(=O)N1 (stereo partly drawn) [Compound 694, (1R,3S,4R)-4-(4-(4-((2,6-dioxopiperidin-3-yl)amino)-2-fluorophenyl)piperidin-1-yl)-3-fluoro-N-((trans)-4-((5-fluoro-4-(3-(2-oxopyridin-1 (2H)-yl)phenyl)pyrimidin-2-yl)amino)cyclohexyl)cyclohexane-1-carboxamide]

Same assay, conditions: 24 hours incubation, MOLT-4, top concentration 10 micromolar; read-out: HiBIT-degradation MOLT4 PIP4k2C 24 hours DC50

DC50, < 500 nM:
O=C1CCC(Nc2ccc(C3CCN(CCN4CCC(C(=O)N5CCC(Nc6ncc(Cl)c(-c7cccc(-c8ccccc8)c7)n6)CC5)CC4)CC3)cc2)C(=O)N1 (centres unmarked) [Compound 74, 3-((4-(1-(2-(4-(4-((4-([1,1′-biphenyl]-3-yl)-5-chloropyrimidin-2-yl)amino)piperidine-1-carbonyl)piperidin-1-yl)ethyl)piperidin-4-yl)phenyl)amino)piperidine-2,6-dione]
O=C1CCC(n2c(=O)oc3cc(C4CCN(C[C@H]5CC[C@H](NC(=O)[C@H]6CCC[C@@H](Nc7ncc(F)c(-c8cccc(-n9ccccc9=O)c8)n7)C6)CC5)CC4)ccc32)C(=O)N1 (relative stereo) [Compound 306, cis-trans-N-(4-((4-(3-(2,6-dioxopiperidin-3-yl)-2-oxo-2,3-dihydrobenzo[d]oxazol-6-yl)piperidin-1-yl)methyl)cyclohexyl)-3-((5-fluoro-4-(3-(2-oxopyridin-1(2H)-yl)phenyl)pyrimidin-2-yl)amino)cyclohexane-1-carboxamide]
Cn1nc(C2CCC(=O)NC2=O)c2ccc(C3CCN(C(=O)C4(O)CCN(CC(=O)N5CCC(Nc6ncc(Cl)c(-c7cccc(-c8ccc(F)cc8)c7)n6)CC5)CC4)CC3)cc21 (centres unmarked) [Compound 278, 3-(6-(1-(1-(2-(4-((5-chloro-4-(4′-fluoro-[1,1′-biphenyl]-3-yl)pyrimidin-2-yl)amino)piperidin-1-yl)-2-oxoethyl)-4-hydroxypiperidine-4-carbonyl)piperidin-4-yl)-1-methyl-1H-indazol-3-yl)piperidine-2,6-dione]
Cn1nc(C2CCC(=O)NC2=O)c2ccc(C3CCN(CCC4CCN(C(=O)[C@@H]5CCC[C@H](Nc6ncc(F)c(-c7cccc(-n8ccccc8=O)c7)n6)C5)CC4)CC3)cc21 (stereo partly drawn) [Compound 351, 3-(6-(1-(2-(1-((1R,3S)-3-((5-fluoro-4-(3-(2-oxopyridin-1(2H)-yl)phenyl)pyrimidin-2-yl)amino)cyclohexane-1-carbonyl)piperidin-4-yl)ethyl)piperidin-4-yl)-1-methyl-1H-indazol-3-yl)piperidine-2,6-dione]
O=C1CCC(n2c(=O)oc3cc(N4CCC(N5CCC(C(=O)N[C@H]6CC[C@H](Nc7ncc(F)c(-c8cccc(-n9ccccc9=O)c8)n7)CC6)CC5)CC4)ccc32)C(=O)N1 (stereo partly drawn) [Compound 317, trans-1′-(3-(2,6-dioxopiperidin-3-yl)-2-oxo-2,3-dihydrobenzo[d]oxazol-6-yl)-N-(4-((5-fluoro-4-(3-(2-oxopyridin-1(2H)-yl)phenyl)pyrimidin-2-yl)amino)cyclohexyl)-[1,4′-bipiperidine]-4-carboxamide]
Cn1nc(C2CCC(=O)NC2=O)c2ccc(C3CCN(CC(=O)N4CCC(O)(C(=O)N5CCC(Nc6ncc(Cl)c(-c7cccc(-c8ccc(F)cc8)c7)n6)CC5)CC4)CC3)cc21 (centres unmarked) [Compound 290, 3-(6-(1-(2-(4-(4-((5-chloro-4-(4′-fluoro-[1,1′-biphenyl]-3-yl)pyrimidin-2-yl)amino)piperidine-1-carbonyl)-4-hydroxypiperidin-1-yl)-2-oxoethyl)piperidin-4-yl)-1-methyl-1H-indazol-3-yl)piperidine-2,6-dione]
Cn1nc(C2CCC(=O)NC2=O)c2ccc(N3CCC(N4CCC(CNC(=O)[C@H]5CCC[C@@H](Nc6ncc(F)c(-c7cccc(-n8ccccc8=O)c7)n6)C5)CC4)CC3)cc21 (relative stereo) [Compound 333, cis-N-((1′-(3-(2,6-dioxopiperidin-3-yl)-1-methyl-1H-indazol-6-yl)-[1,4′-bipiperidin]-4-yl)methyl)-3-((5-fluoro-4-(3-(2-oxopyridin-1(2H)-yl)phenyl)pyrimidin-2-yl)amino)cyclohexane-1-carboxamide]
O=C1CCC(n2c(=O)oc3cc(C4CCN(CC5CCN(CC(=O)N6CCC(Nc7ncc(F)c(-c8cccc(-c9ccc[nH]c9=O)c8)n7)CC6)CC5)CC4)ccc32)C(=O)N1 (centres unmarked) [Compound 379, 3-[6-[1-[[1-[2-[4-[[5-fluoro-4-[3-(2-oxo-1H-pyridin-3-yl)phenyl]pyrimidin-2-yl]amino]-1-piperidyl]-2-oxo-ethyl]-4-piperidyl]methyl]-4-piperidyl]-2-oxo-1,3-benzoxazol-3-yl]piperidine-2,6-dione]
O=C1CCC(Nc2ccc(N3CCC(N4CCC(CNC(=O)[C@H]5CCC[C@@H](Nc6ncc(F)c(-c7cccc(-n8ccccc8=O)c7)n6)C5)CC4)CC3)c(F)c2)C(=O)N1 (relative stereo) [Compound 361, cis-N-((1′-(4-((2,6-dioxopiperidin-3-yl)amino)-2-fluorophenyl)-[1,4′-bipiperidin]-4-yl)methyl)-3-((5-fluoro-4-(3-(2-oxopyridin-1(2H)-yl)phenyl)pyrimidin-2-yl)amino)cyclohexane-1-carboxamide]

Source: patent US20260355196A1, “INHIBITORS AND DEGRADERS OF PIP4K PROTEIN” (Larkspur Biosciences, Inc., priority 2023, published 2026)
